Values joined by “and” are separate entries in the source; they are usually repeats but may differ in a detail not shown here. Identical values can stand only once.
Tests used:
[1] = Colour of the resin after each passage in a blower-extruder
Experimental: (2) Examination of the colour of the resin after each passage (3 in all) in a blower-extruder, the mould being a 250 ml cylindrical flask.
Four resins where tested, the first containing 0.2% of 2-phenyl-indole and the others 0.2%, 0.03% and 0.015% of compound 1 respectively.

[2] = Comparison with 2-phenyl-indole, vinyl chloride-vinylidene chloride co-polymer, 210° C.; settings: 0.3 part
Experimental: A second test was made using the following compound:
The sheets were heated in a ventilated oven at 210° C. and the following results were obtained: […]

[3] = Photostabilizing power, sheets exposed to the sun, rigid co-polymer (b)
Experimental: (§1) The sheets were exposed to the sun and their colorations were also determined according to the GARDNER method.

[4] = Static thermostability (GARDNER method), rigid PVC sheets, 185° C., equimolecular quantities; settings: 1.55×10^-3 mol
Experimental: (§2) This study was carried out according to the GARDNER method, described in British Pat. No. 1,489,685.
(§3) The reference substance was 2-phenyl-indole, a well-known and widely used stabilizer.
(§4) The stabilizer (dihydropyridine or 2-phenyl-indole) and the other usual ingredients were mixed with powdered vinyl resins and the mixtures were calendered at a temperature of 160° C. to give rigid sheets.
(§5) The sheets were then heated in a thermostated oven (185° C. or 210° C.) for different intervals of time until incipient carbonization.
(§6) The coloration of the samples was compared to a standard scale of coloration, known as the GARDNER scale and was expressed in terms of the reference figures of the GARDNER scale.
(§7) This study was carried out with the following resin:
(§8) Polyvinyl chloride resin
(§9) SL 2016 is a solution of zinc-2-ethyl-hexanoate in a mixture of hydrocarbons boiling between 158° C. and 184° C.
Finally, a trail was performed at 185° C., with resins containing equimolecular quantities of the dihydropyridines or of 2-phenyl-indole, namely 1.55×10^-3 mol. In this case too, the samples were removed from the oven every 6 minutes over a period of 24 minutes and then every 3 minutes until the 42nd minute (or until carbonization).

[5] = Comparison with 2-phenyl-indole, vinyl chloride-vinyl acetate co-polymer, 185° C.; settings: 0.3 part
Experimental: (c) Comparison with 2-phenyl-indole
A comparative test was made using the following compound:
The sheets were heated in a ventilated oven at 185° C. and the following results were obtained: […]

[6] = Static thermostability (GARDNER method), rigid PVC sheets, 185° C., 0.3 part stabilizer
Experimental: as §2, §3, §4, §5, §6, §7, §8, §9
A second trial was performed at a temperature of 185° C., with a resin containing 0.3 part of stabilizer, the samples being removed from the oven every 6 minutes over a period of 24 minutes, then every 3 minutes until the 42nd minute (or until carbonization).

[7] = Photostabilizing power, sheets exposed to the sun, co-polymer (a)
Experimental: as §1

[8] = Static thermostability (GARDNER method), rigid PVC sheets, 210° C., 0.3 part stabilizer
Procedure, shortened: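 Rigid sheets calendered at 160° C. from powdered PVC resin with 0.3 part by weight stabilizer (dihydropyridine or 2-phenyl-indole reference) plus usual ingredients. Sheets heated in oven at 210° C., removed every three minutes over 21 minutes until incipient carbonization. Coloration scored against GARDNER scale reference figures.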

[9] = Photostabilizing power, PVC plates exposed to the sun, GARDNER scale
Experimental: (§10) The photostabilizing power of the compounds of the invention was studied by exposing to the sun polyvinyl chloride plates which had been stabilized either by a dihydropyridine of the invention or by 2-phenyl-indole, or again by 2-(3'-methoxy-4'-hydroxy)-indole. This last product is an extremely valuable thermostabilizer for thermoplastic resins and is described in British Pat. No. 1,489,685.
(§11) The resin given hereunder was prepared by mixing on cylinders at 160° C.:
(§12) The plates of stabilized polyvinyl chloride, together with a plate which had not been stabilized, were stood in the sun under the same conditions and at the same time. Their colour was measured after 6 hours and 12 hours of exposure.
(§13) The coloration of the plates was determined according to two methods:
On the plates themselves, following the GARDNER scale, as in the section on thermostability,
The sign + means that the coloration lies between the lower unit and the upper half-unit. Thus, 3+ means that the coloration lies between 3 and 3.5. Similarly, the sign - means that the coloration lies between the lower half-unit and the upper unit.

[10] = Comparison with stabilizer G1, rigid co-polymer, 0.5 part, 185° C.
From the text: (b) Comparison with stabilizer G1
Stabilizer G1 is a mixture of 1,4-butanediol-β-aminocrotonate and of β-aminocrotonate of alcohols containing from 16 to 18 carbon atoms.

[11] = Comparison with stabilizer G1, rigid co-polymer (12.5 to 13.5% of acetate), 0.5 part, 185° C.
From the text: Another comparison was made with the following rigid co-polymer: […]

[12] = Polarographic study of the oxidation potential; assay type: physicochemical; settings: acetonitrile, 0.1 M lithium perchlorate, vitrous carbon electrode, calomel reference
From the text: By a polarographic study of their oxidation potential, compared to well-known antioxidants such as 2,6-diterbutyl-4-methyl-phenol, 2-terbutyl-4-methoxy-phenol, 4-methoxy-phenol and hydroquinone.
Reference electrode: Calomel electrode containing a saturated solution of anhydrous lithium perchlorate as bridge liquid.
Working electrode: Vitrous carbon rotating electrode (2,500 r.p.m.)
Counter-electrode: Platinum electrode
Acetonitrile containing less than 0.1% of water and presenting no polarographic waves between -2.5 V and +2.5 V.
Anhydrous lithium perchlorate containing less than 1% of water.
A 0.1 M solution of lithium perchlorate in acetonitrile, treated and preserved on a 4 A molecular sieve.
Amplitude of exploration: 0 to 2 V
Speed of exploration: 10 mV/second
Sensitivity: 1.25 μA to 50 μA
Mean concentration: about 0.3×10^-3 mol/liter
Between each measurement, the vitrous carbon electrode and the platinum electrode were carefully cleaned with Joseph paper.

[13] = Comparison with stabilizer G1, 0.1 part, 185° C.
Experimental: A test was also carried out with the following compound:
Another test was made with the same resin but containing 0.1 part of stabilizer.

[14] = Photostabilizing power, tetrahydrofuran solution of plates exposed to the sun, French Pharmacopeia
Experimental: as §10, §11, §12, §13
On a solution of these plates in tetrahydrofuran, the coloration of th solution being measured according to the French Pharmacopeia (IXth edition, II-338).

## c1ccc(-c2cc3ccccc3[nH]2)cc1 [2-Phenyl-indole, 2-phenyl-indole, reference compound]
[1]; after the second passage
  colour of the flask: blue color tending towards green
[1]; after the third passage
  colour of the flask: greenish-blue
[2]; 0 min
  coloration, GARDNER scale: 2 and 1
[2]; 3 min
  coloration, GARDNER scale: 2 and 1
[2]; 6 min
  coloration, GARDNER scale: 5 and 4
[2]; 9 min
  coloration, GARDNER scale: 8.5 and 10
[2]; 12 min
  coloration, GARDNER scale: 14 and 15
[2]; 15 min
  coloration, GARDNER scale: 16
[3]; After 24 hours
  Colour in GARDNER degrees: 17 GARDNER degrees and 13 GARDNER degrees
[3]; Time 0
  Colour in GARDNER degrees: 1.5 GARDNER degrees and 1 GARDNER degrees
[4]; 0 min
  coloration, GARDNER scale: 1
[4]; 6 min
  coloration, GARDNER scale: 2
[4]; 12 min
  coloration, GARDNER scale: 3
[4]; 18 min
  coloration, GARDNER scale: 10
[4]; 24 min
  coloration, GARDNER scale: 13
[4]; 27 min
  coloration, GARDNER scale: 14
[4]; 30 min
  coloration, GARDNER scale: 14
[4]; 33 min
  coloration, GARDNER scale: 14
[4]; 36 min
  coloration, GARDNER scale: 16
[4]; 39 min
  coloration, GARDNER scale: 16
[4]; 42 min
  coloration, GARDNER scale: Burnt
[5]; 0 min
  coloration, GARDNER scale: 1
[5]; 2 min
  coloration, GARDNER scale: 1
[5]; 4 min
  coloration, GARDNER scale: 2
[5]; 6 min
  coloration, GARDNER scale: 3
[5]; 8 min
  coloration, GARDNER scale: 8
[5]; 10 min
  coloration, GARDNER scale: 12
[5]; 12 min
  coloration, GARDNER scale: 14
[5]; 14 min
  coloration, GARDNER scale: 17
[6]; 0 min
  coloration, GARDNER scale: 1
[6]; 6 min
  coloration, GARDNER scale: 1
[6]; 12 min
  coloration, GARDNER scale: 3 and 4 and 5
[6]; 24 min
  coloration, GARDNER scale: 13 and 11
[6]; 27 min
  coloration, GARDNER scale: 14 and 13
[6]; 30 min
  coloration, GARDNER scale: 15 and 14
[6]; 33 min
  coloration, GARDNER scale: 15 and 14
[6]; 36 min
  coloration, GARDNER scale: 16 and 14 and 15
[6]; 39 min
  coloration, GARDNER scale: 16 and 15
[7]; After 24 hours
  Colour in GARDNER degrees: 6 GARDNER degrees and 8 GARDNER degrees
[7]; Time 0
  Colour in GARDNER degrees: 1 GARDNER degrees
[8]; 0 min
  coloration, GARDNER scale: 1
[9]; exposure to sun 6h
  Coloration of the plates GARDNER: 3

## C#CCOC(=O)C1=C(C)NC(C)=C(C(=O)OCC#C)C1 [Compound 2, 2,6-Dimethyl-3,5-dicarbopropargyloxy-1,4-dihydropyridine]
[10]; 0 min
  coloration, GARDNER scale: 1
[10]; 2 min
  coloration, GARDNER scale: 1
[10]; 4 min
  coloration, GARDNER scale: 1.5
[10]; 6 min
  coloration, GARDNER scale: 5
[10]; 8 min
  coloration, GARDNER scale: 10
[10]; 10 min
  coloration, GARDNER scale: 12
[10]; 12 min
  coloration, GARDNER scale: 16
[11]; 0 min
  coloration, GARDNER scale: 1
[11]; 2 min
  coloration, GARDNER scale: 1
[11]; 4 min
  coloration, GARDNER scale: 2
[11]; 6 min
  coloration, GARDNER scale: 3
[11]; 10 min
  coloration, GARDNER scale: 8.5
[11]; 12 min
  coloration, GARDNER scale: 13
[11]; 14 min
  coloration, GARDNER scale: 17
[11]; column without printed time, between 6 and 10 min
  coloration, GARDNER scale: 4
[12]
  Oxidation potential: 0.80 ± 0.01 volts
[6]; 0 min
  coloration, GARDNER scale: 1
[6]; 6 min
  coloration, GARDNER scale: 1
[6]; 12 min
  coloration, GARDNER scale: 2
[6]; 18 min
  coloration, GARDNER scale: 4
[6]; 24 min
  coloration, GARDNER scale: 6
[6]; 27 min
  coloration, GARDNER scale: 7
[6]; 30 min
  coloration, GARDNER scale: 8.5
[6]; 33 min
  coloration, GARDNER scale: 9
[6]; 36 min
  coloration, GARDNER scale: 10.5
[6]; 39 min
  coloration, GARDNER scale: 12
[6]; 42 min
  coloration, GARDNER scale: 18
[13]; 0 min
  coloration, GARDNER scale: 1
[13]; 2 min
  coloration, GARDNER scale: 1
[13]; 4 min
  coloration, GARDNER scale: 2
[13]; 6 min
  coloration, GARDNER scale: 4
[13]; 8 min
  coloration, GARDNER scale: 8
[13]; 10 min
  coloration, GARDNER scale: 10
[13]; 12 min
  coloration, GARDNER scale: 12
[13]; 14 min
  coloration, GARDNER scale: 13
[14]; exposure to sun 0
  Coloration of the plates FRENCH PHARMACOPEIA: JV6
[14]; exposure to sun 6h
  Coloration of the plates FRENCH PHARMACOPEIA: JV6
[14]; exposure to sun 12h
  Coloration of the plates FRENCH PHARMACOPEIA: JV5
[8]; 0 min
  coloration, GARDNER scale: 1
[8]; 0 to 3 minutes
  coloration of the resins, in words: considerably less
[8]; 3 min
  coloration, GARDNER scale: 1
[8]; 210° C.
  thermostabilizing power compared to 2-phenyl-indole, in words: greatly superior to 2-phenyl-indole
[8]; 6 min
  coloration, GARDNER scale: 1
[8]; 9 min
  coloration, GARDNER scale: 4
[8]; 12 min
  coloration, GARDNER scale: 8
[8]; 15 min
  coloration, GARDNER scale: 12
[8]; 18 min
  coloration, GARDNER scale: Burnt
[9]; exposure to sun 0
  Coloration of the plates GARDNER: 1
[9]; exposure to sun 6h
  Coloration of the plates GARDNER: 1
[9]; exposure to sun 12h
  Coloration of the plates GARDNER: 1.5

From US4317768A, “Dihydropyridine derivatives as stabilizers for vinyl chloride polymers” (priority 1977, dated 1982)
